Laboratory results reported in patent US20210269479A1, “USE OF CY[…] FOR TREATING CANCER” (Hepion Pharmaceuticals, Inc., priority 2020, published 2021).
Entries after “also recorded” stand apart in the source; their conditions may differ.

Columns and labels:
[1] = test system: liver tumors (likely hepatocellular carcinoma); experiment: Liver tumor burden in streptozotocin/high-fat diet NASH mice; type: in vivo, C57BL/6J male mice
Method: NASH was initiated in 2-day-old C57BL/6J male mice by intraperitoneal injection with […] streptozotocin (S0130; Sigma-Aldrich) to disrupt pancreatic β cells, induce diabetes, and promote adiposity in the liver. Mice were weaned at 3 weeks of age and begun on a high-fat diet with 60% kcal fat (D12492N; Research Diets) for the duration of the studies. Additionally, mice with a regular diet (D12450KN; Research Diets) and without streptozotocin were included as negative controls. CRV431 was dissolved in a self-microemulsifying drug vehicle and then diluted with PBS and administered daily by oral gavage at 50 mg/kg per day. The start time and duration of vehicle and CRV431 treatments varied depending on the study.
In two separate experiments, tumor burden at the end of treatment was assessed by the number of tumors (FIGS. 11A and 12A) and a composite score based on the number and size of tumors (0-7 scale; FIGS. 11B and 12B).

[2] = test system: human precision cut liver slices (PCLS); experiment: Biomarker secretion from PCLS into culture medium (ELISA); type: cell-based; details: collagen1α1, fibronectin, hyaluronic acid, IL-6, MCP-1
Method: PCLS were obtained from 5 human donors who underwent resection of liver cancer. Replicate slices were collected from healthy margins of the resections and cultured for 4 or 6 days depending on the experimental protocol. In the Nonstimulation Protocol slices were cultured for 6 days and treated for the entire period with DMSO vehicle or 5 μM CRV431. In the Stimulation Protocol slices were rested for 1 day and then administered the cytokines, TGFβ and PDGF-BB, for 3 days to stimulate inflammation and fibrosis. DMSO vehicle, CRV431 (1 and 5 μM), Alk5i (10 μM), obeticholic acid (5 μM), elafibranor (5 μM), resmetirom (5 μM), and Aramchol (5 μM) were administered individually as drug treatments in the Stimulation Protocol concurrent with TGFβ+PDGF-BB. Culture medium treatments were replaced daily.
(a) Biomarker secretion. Spent culture medium was collected daily from duplicate slices for each treatment. ELISAs were used to quantify secretion of monocyte chemoattractant protein (MCP-1), interleukin-6 (IL-6), tissue inhibitor of metalloproteinase-1 (TIMP1), hyaluronic acid, fibronectin, and collagen 1α1. For each donor the mean level of biomarker secretion in each treatment group was expressed as a percentage change relative to DMSO vehicle, the percentages averaged for all donors, and finally the mean daily percentage change calculated from all days of evaluation. […]

[3] = 50 mg/kg per day oral gavage, weeks 20 to 30

CC[C@@H]1NC(=O)[C@H]([C@H](O)[C@H](C)CCCCCCNC(C)=O)N(C)C(=O)[C@H](C(C)C)N(C)C(=O)[C@H](CC(C)C)N(C)C(=O)[C@H](CC(C)C)N(C)C(=O)[C@@H](C)NC(=O)[C@H](C)NC(=O)[C@H](CC(C)C)N(C)C(=O)[C@H](C(C)C)NC(=O)[C@H](CC(C)C)N(C)C(=O)[C@@H](C)N(C)C1=O [CRV431]
decrease of tumor burden (score combining tumor number and size) [1, 3]: 52% | livers lacking tumors [1, 3]: 2 of 10 | number of liver tumors vs vehicle [1, 3]: half the number of tumors | tumor size vs vehicle [1, 3]: smaller tumors on average | Tumor number, mean ([1]; 50 mg/kg/day, end of treatment): 4.80 | Tumor score, mean (0-7 scale) ([1]; 50 mg/kg/day, end of treatment): 2.40 | secretion of inflammation and fibrosis biomarkers [2]: reduced secretion of collagen1α1, fibronectin, hyaluronic acid, IL-6, and MCP-1; also recorded: decreased the mean daily secretion and gene expression of all markers
